Values quoted from earlier work, collected in patent publication US20020147153A1, “Nutritional supplement to alleviate symptoms associated with reduced levels of serotonin” (Functional Foods, Inc., priority 2001, published 2002).

What was measured:
[1] = area under glycemic response curve, 2-hour period after 50 g carbohydrate, relative to white bread or glucose standard

Row | Compound | time to increased mental alertness (safe and rapid manner) | time of maximum effect (then almost entirely excreted) | glycemic index (GI) [1]
1 | Cn1c(=O)c2c(ncn2C)n(C)c1=O [Caffeine] | approximately 30 minutes | 2 to 4.5 h | –
2 | O=C(CO)[C@@H](O)[C@H](O)[C@H](O)CO [Fructose] | – | – | 32
